Results taken from PubChem BioAssay (NCI).
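Step 1: Grow cells in 96-well plates. Step 2: Expose to compound for 48 hours at 5 concentrations. Step 3: Interpolate endpoints linearly; if unreached, use highest concentration. TGI: total growth inhibition.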

Tests used:
Assay in all cases: inhibition of tumour cell growth, NCI panel, 48 h
DU-145 prostate = system: DU-145 prostate
SN12C renal = system: SN12C renal
HCC-2998 colon = system: HCC-2998 colon
TK-10 renal = system: TK-10 renal
ACHN renal = system: ACHN renal
OVCAR-3 ovarian = system: OVCAR-3 ovarian
SF-295 CNS = system: SF-295 CNS
SW-620 colon = system: SW-620 colon
K-562 leukemia = system: K-562 leukemia
MDA-N = system: MDA-N
LXFL 529 NSCLC = system: LXFL 529 NSCLC
BT-549 breast = system: BT-549 breast
PC-3 prostate = system: PC-3 prostate
U251 CNS = system: U251 CNS
HOP-92 NSCLC = system: HOP-92 NSCLC
NCI-H460 lung = system: NCI-H460 lung
OVCAR-8 ovarian = system: OVCAR-8 ovarian
MCF7 breast = system: MCF7 breast
SK-MEL-5 melanoma = system: SK-MEL-5 melanoma
EKVX NSCLC = system: EKVX NSCLC

Row | Compound | TGI (DU-145 prostate) [µM] | TGI (SN12C renal) [µM] | TGI (HCC-2998 colon) [µM] | TGI (TK-10 renal) [µM] | TGI (ACHN renal) [µM] | TGI (OVCAR-3 ovarian) [µM] | TGI (SF-295 CNS) [µM] | TGI (SW-620 colon) [µM] | TGI (K-562 leukemia) [µM] | TGI (MDA-N) [µM] | TGI (LXFL 529 NSCLC) [µM] | TGI (BT-549 breast) [µM] | TGI (PC-3 prostate) [µM] | TGI (U251 CNS) [µM] | TGI (HOP-92 NSCLC) [µM] | TGI (NCI-H460 lung) [µM] | TGI (OVCAR-8 ovarian) [µM] | TGI (MCF7 breast) [µM] | TGI (SK-MEL-5 melanoma) [µM] | TGI (EKVX NSCLC) [µM]
1 | CC(Oc1ccc(Oc2cnc3ccc(Cl)cc3n2)cc1)C(=O)O (stereo not drawn) | > 100 | > 100 | > 100 | > 100 | > 100 | > 100 | > 100 | > 100 | > 100 | > 100 | > 100 | > 100 | > 100 | > 100 | > 100 | > 100 | > 100 | > 100 | > 100 | > 100
2 | CCOc1ccc(N=C(NC(=O)c2ccccc2)SC)cc1 | – | > 100 | > 100 | > 100 | > 100 | > 100 | > 100 | > 100 | > 100 | – | > 100 | – | – | > 100 | > 100 | > 100 | > 100 | – | > 100 | > 100
3 | O=c1c2c(-c3ccccc3)c3ccccc3nc2cnn1-c1ccccc1 | – | > 100 | > 100 | > 100 | > 100 | > 100 | > 100 | > 100 | > 100 | – | > 100 | – | – | > 100 | > 100 | > 100 | > 100 | – | > 100 | > 100
4 | COc1cccc(-c2cc(=O)c3cc4c(cc3[nH]2)OCO4)c1 | – | > 100 | 0.934 | 54.5 | > 48.2 | 0.452 | 0.828 | > 100 | > 100 | – | 23.2 | – | – | – | > 100 | 0.898 | 0.868 | – | 0.327 | > 100
5 | CC(=O)c1ccc(NC(=O)C(=O)C(C(=O)/C=C/c2ccccc2)C2OC(=O)c3ccccc32)cc1 (stereo not drawn) | – | > 100 | > 100 | > 100 | > 100 | – | > 100 | > 100 | > 100 | – | > 100 | – | – | > 100 | > 100 | > 100 | > 100 | – | > 100 | > 100
6 | CCCCCCC(O)CC[C@H]1CCC[C@@H](C)N1 (stereo partly drawn) | – | > 100 | > 100 | > 100 | > 100 | < 10 | > 31.6 | > 100 | > 100 | – | > 100 | – | – | > 31.6 | > 100 | > 100 | < 10 | – | > 100 | > 100
7 | COC/N=C(\NC#N)NCOC | – | > 100 | > 100 | > 100 | > 100 | > 100 | > 100 | > 59.7 | > 100 | – | > 100 | – | – | > 100 | > 100 | > 100 | > 100 | – | > 100 | > 100
